Results as given in ChEMBL document CHEMBL1201862, “PubChem BioAssay data set” (2004).
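How tested: cells in 96-well plates exposed to compound for 48 hours at five concentrations. GI50 = concentration required for 50% inhibition of growth.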 Calls of active or inactive are those of the source. Rule as the data show it: active = GI50 up to about 1.1 µM and inactive = higher.

What was measured:
Experiment in all cases: NCI-60 cell line screen, 48 h
CCRF-CEM = system: CCRF-CEM
MOLT-4 = system: MOLT-4
T47D = system: T47D
UACC-62 = system: UACC-62
KM12 = system: KM12
LOX IMVI = system: LOX IMVI
ACHN = system: ACHN
OVCAR-8 = system: OVCAR-8
Malme-3M = system: Malme-3M
CAKI-1 = system: CAKI-1
SK-OV-3 = system: SK-OV-3
NCI-H23 = system: NCI-H23
A549 = system: A549
SR = system: SR
SNB-75 = system: SNB-75
NCI-H522 = system: NCI-H522
MCF7 = system: MCF7
SK-MEL-2 = system: SK-MEL-2
HCT-116 = system: HCT-116
MDA-MB-231 = system: MDA-MB-231

Measured: GI50

O=S1(=O)OCCCOS(=O)(=O)C1(Br)Br
inactive: CCRF-CEM > 100 µM | MOLT-4 > 100 µM | T47D > 100 µM | UACC-62 > 100 µM | KM12 > 100 µM | LOX IMVI > 100 µM | ACHN > 100 µM | OVCAR-8 > 100 µM | Malme-3M > 100 µM | CAKI-1 > 100 µM | SK-OV-3 > 100 µM | NCI-H23 > 100 µM | A549 > 100 µM | SR > 100 µM | SNB-75 > 100 µM | NCI-H522 > 100 µM | MCF7 > 100 µM | SK-MEL-2 > 100 µM | HCT-116 > 100 µM

CN1CCCCC(C#N)(c2ccccc2)CC1 (centres undefined)
inactive: CCRF-CEM > 100 µM | MOLT-4 > 100 µM | T47D > 100 µM | KM12 > 100 µM | ACHN > 100 µM | OVCAR-8 > 100 µM | Malme-3M > 100 µM | CAKI-1 > 100 µM | SK-OV-3 > 100 µM | NCI-H23 > 100 µM | A549 > 100 µM | SR > 100 µM | SNB-75 > 100 µM | MCF7 > 100 µM | HCT-116 > 100 µM

O=C1/C(=C\c2cccc(Oc3ccccc3)c2)SC(c2ccccc2)N1c1cccc(Cl)c1 (centres undefined)
inactive: MOLT-4 > 100 µM | T47D > 100 µM | UACC-62 > 100 µM | KM12 35.8 µM | LOX IMVI > 100 µM | ACHN > 100 µM | OVCAR-8 > 100 µM | Malme-3M > 100 µM | CAKI-1 > 100 µM | SK-OV-3 > 100 µM | NCI-H23 > 100 µM | A549 > 100 µM | MDA-MB-231 > 100 µM | SK-MEL-2 > 100 µM | HCT-116 > 100 µM

N/C(=N\c1ccc(Cl)c(Cl)c1)c1ccccc1N
inactive: CCRF-CEM 27.7 µM | MOLT-4 2.7 µM | UACC-62 54.5 µM | KM12 33.6 µM | LOX IMVI 22.1 µM | ACHN 56.8 µM | OVCAR-8 26.4 µM | Malme-3M 19 µM | CAKI-1 30.3 µM | SK-OV-3 85.7 µM | NCI-H23 24.3 µM | A549 25.3 µM | MDA-MB-231 25.3 µM | SNB-75 31.4 µM | NCI-H522 11.4 µM | MCF7 52.1 µM | SK-MEL-2 15.4 µM | HCT-116 17.2 µM

CC12CC(c3ccccc3O1)C(C(=O)Nc1ccc(Cl)cc1Cl)C(=O)N2 (centres undefined)
inactive: CCRF-CEM 15 µM | MOLT-4 19.1 µM | T47D 20.3 µM | UACC-62 > 100 µM | KM12 > 100 µM | LOX IMVI 22.5 µM | ACHN 25 µM | OVCAR-8 14.9 µM | Malme-3M 39 µM | CAKI-1 45 µM | SK-OV-3 73.8 µM | NCI-H23 25.9 µM | A549 23.2 µM | NCI-H522 56.8 µM | MCF7 > 100 µM | SK-MEL-2 > 100 µM | HCT-116 34.3 µM

CC(=O)N[C@@H](Cc1ccc(O)cn1)C(=O)NCc1cccc(F)c1
inactive: CCRF-CEM > 100 µM | T47D > 100 µM | UACC-62 > 100 µM | KM12 > 100 µM | LOX IMVI > 100 µM | ACHN > 100 µM | Malme-3M > 100 µM | CAKI-1 > 100 µM | SK-OV-3 > 100 µM | NCI-H23 > 100 µM | A549 > 100 µM | SR 59.7 µM | NCI-H522 > 100 µM | MCF7 > 100 µM | SK-MEL-2 > 100 µM | HCT-116 > 100 µM

COc1ccc(OC)c(NCC(=O)Nn2cnc3ccc(S(=O)(=O)Nc4cc(OC)ccc4OC)cc3c2=O)c1
inactive: CCRF-CEM 35.5 µM | MOLT-4 31.2 µM | UACC-62 > 100 µM | KM12 46 µM | LOX IMVI 41.1 µM | ACHN > 100 µM | OVCAR-8 > 100 µM | Malme-3M > 100 µM | CAKI-1 > 100 µM | SK-OV-3 > 100 µM | NCI-H23 66.7 µM | A549 90.8 µM | MDA-MB-231 > 100 µM | SR 25.4 µM | SNB-75 > 100 µM | NCI-H522 40 µM | MCF7 > 100 µM | SK-MEL-2 35.4 µM | HCT-116 32.6 µM

[O-][S+](CCc1ccccc1)Nc1ccccc1 (centres undefined)
inactive: CCRF-CEM > 100 µM | MOLT-4 > 100 µM | KM12 > 100 µM | LOX IMVI > 100 µM | ACHN > 100 µM | OVCAR-8 > 100 µM | Malme-3M > 100 µM | CAKI-1 > 100 µM | NCI-H23 > 100 µM | A549 > 100 µM | MDA-MB-231 > 100 µM | SR > 100 µM | SNB-75 > 100 µM | NCI-H522 > 100 µM | MCF7 > 100 µM | HCT-116 > 100 µM

O=C(NCCC1CN(S(=O)(=O)C(F)(F)F)c2ccccc21)OCc1ccccc1 (centres undefined)
inactive: CCRF-CEM 38.6 µM | MOLT-4 59.2 µM | UACC-62 > 100 µM | KM12 83.4 µM | ACHN > 100 µM | OVCAR-8 > 100 µM | Malme-3M 12 µM | CAKI-1 > 100 µM | SK-OV-3 > 100 µM | NCI-H23 > 100 µM | A549 > 100 µM | MDA-MB-231 > 100 µM | SR > 100 µM | NCI-H522 57 µM | MCF7 > 100 µM | SK-MEL-2 > 100 µM | HCT-116 > 100 µM

COc1cc(/C=C2\N=C(c3ccccc3)N(c3cc4cc(Sc5ccccc5)ccc4[nH]3)C2=O)cc(OC)c1OC
inactive: CCRF-CEM 16.9 µM | MOLT-4 10.1 µM | T47D 8.17 µM | UACC-62 10.1 µM | KM12 15 µM | LOX IMVI 11.3 µM | ACHN 18.4 µM | OVCAR-8 12.6 µM | Malme-3M 2.96 µM | CAKI-1 17.3 µM | SK-OV-3 21.6 µM | NCI-H23 25.5 µM | A549 19.5 µM | SR 2.18 µM | SNB-75 12.7 µM | NCI-H522 2.96 µM | MCF7 11.5 µM | HCT-116 11.7 µM

COc1cc2c(cc1O)CN1CCC23C=C[C@@H](O)CC13 (some centres undefined)
inactive: CCRF-CEM 28.2 µM | MOLT-4 45.5 µM | UACC-62 > 100 µM | KM12 54 µM | LOX IMVI 46.6 µM | ACHN 57.5 µM | OVCAR-8 38.1 µM | Malme-3M > 100 µM | CAKI-1 > 100 µM | SK-OV-3 > 100 µM | NCI-H23 78.7 µM | A549 75.2 µM | SR 40.6 µM | SNB-75 59.4 µM | NCI-H522 52.4 µM | SK-MEL-2 44.8 µM | HCT-116 34.1 µM

COc1ccc(-c2cc(=O)c3c(O)c(O)c(OC)cc3o2)cc1O
inactive: CCRF-CEM > 100 µM | MOLT-4 > 100 µM | UACC-62 > 100 µM | KM12 > 100 µM | LOX IMVI > 100 µM | ACHN > 100 µM | OVCAR-8 > 100 µM | Malme-3M > 100 µM | CAKI-1 > 100 µM | SK-OV-3 > 100 µM | NCI-H23 > 100 µM | A549 > 100 µM | SR 44.5 µM | SNB-75 31.5 µM | NCI-H522 53.5 µM | SK-MEL-2 > 100 µM | HCT-116 > 100 µM
